Laboratory results published in article PMC8955485, “Journey on VX-809-Based Hybrid Derivatives towards Drug-like F508del-CFTR Correctors: From Molecular Modeling to Chemical Synthesis and Biological Assays” (Pharmaceuticals, 2022).

How the values were obtained:
Type in all cases: cell-based
Set-up in all cases: expressed in transfected cells
F508del-CFTR [1] = target: T1, F508del-CFTR (Homo sapiens, UniProt P13569, DEL508-508); experiment: Western blot analysis of CFTR expression pattern (C band/B band ratio); conditions: F508del-CFTR/HS-YFP CFBE41o- cells; 24 h; 50 nM and 1 µM; versus DMSO
Text: We then biochemically estimated the rescue of the trafficking defect by analyzing the electrophoretic mobility of mutant CFTR protein. In Western blots, CFTR protein can be detected as two bands B and C, of approximately 150 and 170 kDa, respectively. Band B corresponds to immature, partially glycosylated CFTR, while band C corresponds to the mature fully glycosylated CFTR. In cells expressing wild-type CFTR protein, the prevalent form is band C, while the main form in cells expressing F508del-CFTR is band B, in agreement with the severe trafficking defect caused by this mutation (Figure 8). To estimate the effect of our molecules on CFTR expression pattern, we treated F508del-CFTR/HS-YFP expressing CFBE41o-cells for 24 h with test compounds 9b, 9g, and 9j (50 nM and 1 µM) VX-809 as a positive control or DMSO as a vehicle alone.
The next day, cells were lysed and the obtained lysates were subjected to SDS-PAGE followed by Western blotting (Figure 8A). Western blot images were analyzed with ImageJ software. CFTR bands, analyzed as ROI, were quantified in each lane after normalization for GAPDH as a loading control. […]
Supernatant protein concentration was calculated using the BCA assay (Euroclone, Milan, Italy). For each sample, 10 μg of total proteins was resolved in 4–20% gradient Criterion TGX precast gels, transferred to nitrocellulose membranes (using a Trans-Blot Turbo system; Bio-Rad, Hercules, CA, USA), and analyzed by Western blotting. Proteins were detected using the antibodies described above and subsequently visualized by chemiluminescence using the SuperSignal West Femto Substrate (Thermo Fisher Scientific, Waltham, MA, USA). […] Images were analyzed with ImageJ software (NIH). Bands were analyzed as ROI, normalized against the GAPDH loading control.
Figure 8 Biochemical analysis of the F508del-CFTR expression pattern: (A). […] Quantification of the C band/B band ratio in experiments as in (A). […]

F508del-CFTR [2] = target: T1, F508del-CFTR; experiment: HS-YFP functional assay for F508del-CFTR correctors in CFBE41o- cells; conditions: CFBE41o- cells stably expressing F508del-CFTR and HS-YFP; 24 h incubation; stimulation with forskolin 20 µM plus VX-770 1 µM
Protocol: The ability of these compounds to correct the basic defects related to F508del mutant was evaluated on immortalized CFBE41o-bronchial epithelial cells stably expressing F508del-CFTR and the halide sensitive yellow fluorescent protein (HS-YFP).
The measurements of the rate of HS-YFP quenching caused by iodide influx allowed us to determine the activity of F508del-CFTR, after incubation with the compounds, as cited. Activity was then compared to that of cells treated with the corrector VX-809 (1 µM) or with vehicle alone (DMSO).
Within the novel third series of hybrids herein proposed, based on their potency and efficacy in terms of CFTR rescue, we selected six compounds and determined the dose–response relationships (Figure 6). To this aim, F508del-CFTR expressing CFBE41o-cells were treated for 24 h with our hybrids 9b, 9f, 9g, 9h, 9j, and 9y and then mutant CFTR activity was measured by using the YFP functional assay (see Materials and Methods section for details).
Immortalized bronchial epithelial CFBE41o-cells with stable co-expression of the halide-sensitive yellow fluorescent protein (HS-YFP) and of F508del-CFTR were cultured using MEM medium supplemented with 10% fetal calf serum, 100 U/mL penicillin, 2 mM L-glutamine, and […] streptomycin.
(§1) CFBE41o-cells co-expressing mutants CFTR and HS-YFP were plated (50,000 cells/well) on clear-bottom 96-well black microplates (Corning Life Sciences, Acton, MA) and grown at 37 °C in 5% CO2 for 24 h. For the corrector assay, CFBE41o-cells were treated for further 24 h with compounds as indicated. The following day, prior to the assay, the culture medium was removed and cells were stimulated for 30 min at 37 °C with 60 µL PBS (containing 137 mM NaCl, 2.7 mM KCl, 8.1 mM Na2HPO4, 1.5 mM KH2PO4, 1mM CaCl2, and 0.5 mM MgCl2) plus forskolin (20 µM) and VX-770 (1 µM).
(§2) Microplates containing CFBE41o-cells were then transferred to a plate reader (FluoStar Galaxy; BMG Labtech, Offenburg, Germany) equipped with excitation (HQ500/20X: 500 ± 10 nm) and emission (HQ535/30M: 535 ± 15 nm) filters for YFP (Chroma Technology, Brattleboro, VT, USA). During the assay fluorescence was measured continuously for 14 s with 2 s before and 12 s after injection of an iodide containing solution (165 µL of a modified PBS containing I^- instead of Cl^-; final I^- concentration in the well: 100 mM).
(§3) Fluorescence data were normalized for the initial value and fluorescence quenching rate following I^- influx, were determined by fitting the final 10 s of data for each well with an exponential function to extrapolate initial slope (dF/dt).
To evaluate the dose–response relationships, activity slopes obtained for each compound at the different concentrations were fitted with the Hill equation using the Igor software (WaveMetrics) to extrapolate EC50, maximal effect, and Hill coefficient.

F508del-CFTR [3] = target: T1, F508del-CFTR; experiment: HS-YFP functional assay of corrector combinations with VX-445; conditions: CFBE41o- cells, 24 h, VX-445 3 µM; for effect of combination with VX-445 on F508del-CFTR activity: forskolin 20 µM plus VX-770 1 µM
Protocol: Now, to further characterize the activity of these compounds, we tested the novel derivates 9b, 9g, and 9j, along with VX-809 as a positive control, in combination with VX-445 (3 µM), in CFBE41o-cells stably expressing F508del-CFTR by using the YFP functional assay (Figure 7). To this aim, cells were treated for 24 h with test compounds at different concentrations, in combination with VX-445 (3 µM), and then assayed after maximal stimulation of F508del-CFTR in the presence of forskolin (20 µM) plus VX-770 (1 µM).
as §1, §2, §3
Figure 7 Functional analysis of corrector combinations. F508del-CFTR activity was determined in CFBE41o-cells with stable expression of the HS-YFP. Cells were treated for 24 h with VX-445 (3 µM) alone or in combination with 9b, or 9g, or 9j, or VX-809 at different concentrations (from 102 nM to 10 µM). The YFP-based assay was performed after stimulation of CFTR activity with forskolin (20 µM) plus VX-770 (1 µM).

T1 sequence (P13569 with tags, fused parts or gaps DEL508-508): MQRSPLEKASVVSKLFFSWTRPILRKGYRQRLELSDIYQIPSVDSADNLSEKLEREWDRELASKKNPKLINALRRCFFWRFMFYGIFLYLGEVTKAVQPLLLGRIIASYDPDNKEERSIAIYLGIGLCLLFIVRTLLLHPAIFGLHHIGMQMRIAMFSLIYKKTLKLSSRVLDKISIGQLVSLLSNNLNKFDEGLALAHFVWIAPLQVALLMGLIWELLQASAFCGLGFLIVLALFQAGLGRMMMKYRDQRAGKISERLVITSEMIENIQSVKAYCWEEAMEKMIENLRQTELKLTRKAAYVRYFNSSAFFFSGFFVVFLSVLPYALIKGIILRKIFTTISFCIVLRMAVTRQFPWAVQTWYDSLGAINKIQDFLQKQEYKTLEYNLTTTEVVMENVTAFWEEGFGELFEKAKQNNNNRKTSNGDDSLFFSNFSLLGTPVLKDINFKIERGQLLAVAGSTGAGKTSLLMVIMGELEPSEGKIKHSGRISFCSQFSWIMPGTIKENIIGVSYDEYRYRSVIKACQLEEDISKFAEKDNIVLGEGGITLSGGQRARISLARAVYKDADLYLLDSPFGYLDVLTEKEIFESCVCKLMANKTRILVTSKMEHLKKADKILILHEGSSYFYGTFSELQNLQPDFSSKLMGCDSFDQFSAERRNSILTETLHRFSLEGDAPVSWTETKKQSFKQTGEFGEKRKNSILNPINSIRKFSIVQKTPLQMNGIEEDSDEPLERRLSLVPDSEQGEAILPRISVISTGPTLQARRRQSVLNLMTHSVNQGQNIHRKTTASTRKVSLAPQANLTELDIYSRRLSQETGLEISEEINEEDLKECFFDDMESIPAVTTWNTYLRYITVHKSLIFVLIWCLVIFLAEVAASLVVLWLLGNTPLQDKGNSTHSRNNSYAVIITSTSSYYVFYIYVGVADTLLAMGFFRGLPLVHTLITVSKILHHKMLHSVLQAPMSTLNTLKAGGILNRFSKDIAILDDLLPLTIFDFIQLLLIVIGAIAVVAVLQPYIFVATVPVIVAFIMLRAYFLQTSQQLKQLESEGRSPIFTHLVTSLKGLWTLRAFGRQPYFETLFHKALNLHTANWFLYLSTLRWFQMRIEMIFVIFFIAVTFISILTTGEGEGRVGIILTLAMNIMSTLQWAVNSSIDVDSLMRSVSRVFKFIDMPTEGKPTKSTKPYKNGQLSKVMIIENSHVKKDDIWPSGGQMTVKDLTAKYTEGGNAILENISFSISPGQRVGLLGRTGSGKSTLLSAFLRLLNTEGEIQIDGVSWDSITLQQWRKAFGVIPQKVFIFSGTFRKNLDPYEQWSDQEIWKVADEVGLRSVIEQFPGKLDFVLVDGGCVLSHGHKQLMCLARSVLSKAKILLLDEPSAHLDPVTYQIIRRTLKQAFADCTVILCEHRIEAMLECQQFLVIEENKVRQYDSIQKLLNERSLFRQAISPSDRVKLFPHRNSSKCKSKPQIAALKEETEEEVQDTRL

Row | Compound | C band/B band ratio (F508del-CFTR [1]) | EC50 (F508del-CFTR [2]) [µM] | combination with VX-445 compared with VX-809 + VX-445: maximal rescue and activity at low concentration (F508del-CFTR [3]) | effect of combination with VX-445 on F508del-CFTR activity (F508del-CFTR [3])
1 | COc1ccc(-c2nc(NC(=O)C3(c4ccc5c(c4)OCO5)CC3)sc2C(=O)c2ccc(N3CCCC3)cc2)cc1 [Compound 9g] | significant enhancement | 0.033 | as effective as the combination with the positive control VX-809 | clear additive effect
2 | COc1cccc(-c2nc(NC(=O)C3(c4ccc5c(c4)OCO5)CC3)sc2C(=O)c2ccc(OC(F)(F)F)cc2)c1 [Compound 9j] | significant enhancement | 0.037 | as effective as the combination with the positive control VX-809 | clear additive effect
